Laboratory results reported in patent US20260027125A1, “AN ANTIBACTERIAL PARENTERAL FORMULATION AND METHODS THEREOF” (BUGWORKS RESEARCH INDIA PVT. LTD., priority 2022, published 2026).

Columns and labels:
[1] = pKa (selection of counterions); type: physicochemical; conditions: weakly basic nature of the compound
[2] = Solubility of free amine in solvents; type: physicochemical
[3] = Solubility study without acetic acid; type: physicochemical; conditions: aqueous with cosolvent or surfactant or cyclodextrin, combination of ascorbic acid and lactic acid, read-out: solubilized at a concentration of
[4] = counter ion selected for salt screening; cited from earlier work

| SMILES | pKa [1] | solubility in solvents [2] | solubility [3] | pKa (first value) [4] |
| --- | --- | --- | --- | --- |
| Cn1c(=O)ccc2ccc(F)c(CCNC[C@H]3CN(c4cnc5c(n4)NC(=O)CO5)C(=O)O3)c21 [compound of Formula (I), (S)-6-(5-(((2-(7-fluoro-1-methyl-2-oxo-1,2-dihydroquinolin-8-yl)ethyl)amino)methyl)-2-oxooxazolidin-3-yl)-2H-pyrazino[2,3-b][1,4]oxazin-3(4H)-one] | ~6.81 | soluble only in dichloromethane and methanol (1:1) mixture | 20 mg/mL |  |
| CCS(=O)(=O)O [ethane sulfonic acid] |  |  |  | 1.68 |
